Laboratory results: ChEMBL document CHEMBL1201862, “PubChem BioAssay data set” (2004)
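1) Cells in 96-well plates. 2) Compound, 48 h, 5 concentrations. 3) Linear interpolation between surrounding doses. 4) Unreached endpoint = highest concentration. GI50 is the concentration that inhibits growth by half.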 Active and inactive are the calls of the source. Cut-off read from the data, not from the text of the source: active = GI50 up to about 1.1 µM and inactive = higher.

Columns and labels:
Experiment in all cases: NCI-60 cell line screen, 48 h
NCI-H226 = tested on: NCI-H226
KM12 = tested on: KM12
SF-539 = tested on: SF-539
OVCAR-8 = tested on: OVCAR-8
COLO 205 = tested on: COLO 205
U-251 = tested on: U-251
SK-MEL-5 = tested on: SK-MEL-5
SF-295 = tested on: SF-295
IGROV-1 = tested on: IGROV-1
OVCAR-4 = tested on: OVCAR-4
HCT-116 = tested on: HCT-116
A498 = tested on: A498
MOLT-4 = tested on: MOLT-4
SK-MEL-2 = tested on: SK-MEL-2
OVCAR-5 = tested on: OVCAR-5
HT-29 = tested on: HT-29
SR = tested on: SR
SF-268 = tested on: SF-268
ACHN = tested on: ACHN
M14 = tested on: M14

Compound	GI50 (NCI-H226)	GI50 (KM12)	GI50 (SF-539)	GI50 (OVCAR-8)	GI50 (COLO 205)	GI50 (U-251)	GI50 (SK-MEL-5)	GI50 (SF-295)	GI50 (IGROV-1)	GI50 (OVCAR-4)	GI50 (HCT-116)	GI50 (A498)	GI50 (MOLT-4)	GI50 (SK-MEL-2)	GI50 (OVCAR-5)	GI50 (HT-29)	GI50 (SR)	GI50 (SF-268)	GI50 (ACHN)	GI50 (M14)
C=C1CC(OC)(C(OC)C(=O)N[C@H]2OCO[C@H]3C2O[C@H](C[C@@H](COC)OC)C(C)(C)C3OC)O[C@H](C)[C@@H]1C (stereo not given in full)	1.16 µM (inactive)	0.603 µM (active)	0.76 µM (active)	0.861 µM (active)	0.805 µM (active)	0.918 µM (active)	0.622 µM (active)	0.851 µM (active)	1.17 µM (inactive)	0.733 µM (active)	0.624 µM (active)	1.03 µM (active)	0.522 µM (active)	1.15 µM (inactive)	1.42 µM (inactive)	0.491 µM (active)				
CCOC(O)C(F)(F)F (stereo not given)	> 100 µM (inactive)	> 100 µM (inactive)		> 100 µM (inactive)	> 100 µM (inactive)	> 100 µM (inactive)	> 100 µM (inactive)	> 100 µM (inactive)			> 100 µM (inactive)		> 100 µM (inactive)			> 100 µM (inactive)	> 100 µM (inactive)	> 100 µM (inactive)	> 100 µM (inactive)	> 100 µM (inactive)
O=C1c2cc3c(cc2CC12Cc1ccc4c(c1C2=O)CCC4)CCCC3 (stereo not given)			> 100 µM (inactive)	> 100 µM (inactive)		> 100 µM (inactive)	> 100 µM (inactive)	> 100 µM (inactive)	> 100 µM (inactive)	> 100 µM (inactive)	> 100 µM (inactive)	> 100 µM (inactive)	> 100 µM (inactive)	> 100 µM (inactive)	> 100 µM (inactive)	> 100 µM (inactive)	60 µM (inactive)	> 100 µM (inactive)	> 100 µM (inactive)	> 100 µM (inactive)
C=C(/C=C/C=C(/CCC=C(C)C)COC(C)=O)[C@@H]1CC[C@]2([C@H](CCCO)/C(=C(/C)C=O)CC[C@]2(C)O)[C@@H]1O	4.61 µM (inactive)	16.2 µM (inactive)	14 µM (inactive)	22.1 µM (inactive)	0.558 µM (active)	15 µM (inactive)		0.973 µM (active)	17.2 µM (inactive)		19.5 µM (inactive)		9.29 µM (inactive)	17.9 µM (inactive)	39 µM (inactive)	14.8 µM (inactive)		15.7 µM (inactive)	11.5 µM (inactive)	11 µM (inactive)
Cc1c(Cc2ccccc2)n(COCCCO)c(=O)[nH]c1=O	> 100 µM (inactive)	> 100 µM (inactive)	> 100 µM (inactive)	> 100 µM (inactive)	> 100 µM (inactive)	> 100 µM (inactive)	> 100 µM (inactive)	> 100 µM (inactive)	> 100 µM (inactive)	> 100 µM (inactive)	> 100 µM (inactive)	> 100 µM (inactive)	> 100 µM (inactive)	> 100 µM (inactive)	> 100 µM (inactive)	> 100 µM (inactive)		> 100 µM (inactive)	> 100 µM (inactive)	> 100 µM (inactive)
N#Cc1c(-c2ccccc2)c(CN2CCCCC2)c(=O)n2c1[nH]c1ccccc12	> 100 µM (inactive)	30.1 µM (inactive)	38.1 µM (inactive)	30.3 µM (inactive)	25.6 µM (inactive)	27.1 µM (inactive)	5.05 µM (inactive)	36.8 µM (inactive)	19.5 µM (inactive)	46.3 µM (inactive)	16.6 µM (inactive)	30.4 µM (inactive)	0.0764 µM (active)	37.3 µM (inactive)	34.9 µM (inactive)			45.1 µM (inactive)	33.7 µM (inactive)	30.1 µM (inactive)
